Consider five compounds from patent publication US20030224978A1, “Compounds and methods for modulating apoptosis” (McGill University, priority 1996, published 2003).

“Also recorded” adds a separate entry of the source. Positions of bridges follow the written chain, without caps; N, C: chain ends. Residues, ends and D or L forms follow the SMILES beside them. Bounds are passed on as bounds.

In one experiment the test system is SKOV3 cells. The experiment can be described thus: Disruption of human ovarian cancer cell (SKOV3) adhesion. The experiment is classed as cell-based. As to conditions: for activity on SKOV3 cell adhesion: 0.01-1 mg/mL, up to 48 hours; for effect on SKOV3 cell adhesion: final concentration of 1 mg/mL media, within 24 hours. The text has this: Within one representative cell adhesion assay, the addition of a modulating agent to cells that express a cadherin results in disruption of cell adhesion. A “cadherin-expressing cell,” as used herein, may be any type of cell that expresses at least one cadherin on the cell surface at a detectable level, using standard techniques such as immunocytochemical protocols (Blaschuk and Farookhi, Dev. Biol. 136:564-567, 1989). Cadherin-expressing cells include endothelial (e.g., bovine pulmonary artery endothelial cells), epithelial and/or cancer cells (e.g., the human ovarian cancer cell line SKOV3 (ATCC #HTB-77)). For example, such cells may be plated under standard conditions that permit cell adhesion in the presence and absence of modulating agent (e.g., 500 μg/mL). Disruption of cell adhesion may be determined visually within 24 hours, by observing retraction of the cells from one another.
The human ovarian cancer cell line SKOV3 (ATCC #HTB-77) expresses N-cadherin. SKOV3 cells were cultured in a modified MEM-based media containing 10% FCS. Cells were grown in T-250 culture flasks and maintained by periodic subculturing. Cyclic peptides were tested on cells grown in individual wells of 96-well culture dishes (surface area of each well was 0.32 cm^2). Cells were harvested from flasks and seeded at a density of 50,000 cells per well in 0.1 mL media containing the cyclic peptides at concentrations of 1, 0.1, or 0.01 mg/mL, or in the absence of cyclic peptide. Media control wells were also established. Cultures were evaluated periodically by microscopic examination under both bright field and phase contrast conditions. Cultures were maintained for 48 hours.

Experiment [1] relates to bovine pulmonary artery endothelial cells. The experiment is described as follows: Disruption of bovine endothelial cell adhesion. The experiment is classed as cell-based. As to conditions: 500 μg/ml, 30 minutes. As for the experimental part: For use within one such assay, bovine pulmonary artery endothelial cells may be harvested by sterile ablation and digestion in 0.1% collagenase (type II; Worthington Enzymes, Freehold, N.J.). Cells may be maintained in Dulbecco's minimum essential medium supplemented with 10% fetal calf serum and 1% antibiotic-antimycotic at 37° C. in 7% CO2 in air. Cultures may be passaged weekly in trypsin-EDTA and seeded onto tissue culture plastic at 20,000 cells/cm^2. Endothelial cultures may be used at 1 week in culture, which is approximately 3 days after culture confluency is established. The cells may be seeded onto coverslips and treated (e.g., for 30 minutes) with modulating agent or a control compound at, for example, 500 μg/ml and then fixed with 1% paraformaldehyde. As noted above, disruption of cell adhesion may be determined visually within 24 hours, by observing retraction of the cells from one another. This assay evaluates the effect of a modulating agent on N-cadherin mediated cell adhesion.
Bovine pulmonary artery endothelial cells were harvested by sterile ablation and digestion in 0.1% collagenase (type II; Worthington Enzymes, Freehold, N.J.). Cells were maintained in Dulbecco's […] essential medium (Clonetics, San Diego, Calif.) supplemented with 10% fetal calf serum (Atlantic Biologicals, Nor cross, Ga.) and 1% antibiotic-antimycotic at 37° C. in 7% CO2 in air. Cultures were passaged weekly in trypsin-EDTA (Gibco, Grand Island, N.Y.) and seeded onto tissue culture plastic at 20,000 cells/cm^2 for all experiments. Endothelial cultures were used at 1 week in culture, which is approximately 3 days after culture confluency was established. The cells used in all protocols were between 4th passage and 10th passage. The cells were seeded onto coverslips and treated 30 minutes with N-Ac-CHAVC-NH2 (SEQ ID NO:10) or N-Ac-CHGVC-NH2 (SEQ ID NO:20) at 500 μg/ml and then fixed with 1% paraformaldehyde.

A further experiment deals with HUVEC. Type of experiment: cell-based, human. The conditions noted are these: 3 h.
The test system of another experiment is PC-3. Type of experiment: cell-based, human. As to conditions: 3 h. Here is the method:
(§1) N-Ac-CHAVC-NH2 (SEQ ID NO:10) and the control peptide N-Ac-CHGVC-NH2 (SEQ ID NO:20) were evaluated for possible cytotoxic effects on human microvascular endothelial (HMVEC; Clonetics), human umbilical vein endothelial (HUVEC; ATCC #CRL-1730), IAFp2 (human fibroblast cell line; Institute Armand-Frapier, Montreal, Quebec), WI-38 (human fibroblast cell line; ATCC #CCL-75), MDA-MB231 (human breast cancer cell line; ATCC #HTB-26), and PC-3 (human prostate cancer cell line; ATCC #CRL-1435) cells utilizing the MTT assay (Plumb et al., Cancer Res. 49:4435-4440, 1989). Neither of the peptides was cytotoxic at concentrations up to and including 100 μM. Similarly, neither of the peptides was capable of inhibiting the proliferation of the above cell lines at concentrations up to 100 μM, as judged by ^3H-thymidine incorporation assays.

The subject of the next experiment is WI-38. The experiment is classed as cell-based, human. As to conditions: 3 h. As for the experimental part: as §1
The test system of a further experiment is HMVEC. Type of experiment: cell-based, human. The conditions noted are these: 3 h. Here is the method: as §1
The next experiment has as its system IAFp2. The experiment is classed as cell-based, human. As to conditions: 3 h. As for the experimental part: as §1

Usually IC50 stands for the concentration that gives 50% inhibition.

`CC[C@H](C)[C@@H]1NC(=O)[C@H](CC(=O)O)NC(=O)[C@H](C(C)C)NC(=O)[C@H](C)NC(=O)[C@H](Cc2c[nH]cn2)NC(=O)[C@H](C)NC(=O)[C@@H](NC(C)=O)CSSC[C@@H](C(N)=O)NC1=O` (Ac-CAHAVDIC-NH2; disulfide 1-8): the “activity on SKOV3 cell adhesion” value in the experiment with SKOV3 cells was “inactive”. Also, the “effect on endothelial cell monolayer / morphology” value in experiment [1] was “had no effect on endothelial cell morphology; also recorded: neither of the cyclic peptides show activity”.

As to `CC(=O)N[C@H]1CSSC[C@@H](C(N)=O)NC(=O)[C@H](CC(=O)O)NC(=O)[C@H](C(C)C)NC(=O)[C@H](C)NC(=O)[C@H](Cc2c[nH]cn2)NC(=O)[C@H](C)NC1=O` [N-Ac-CAHAVDC-NH2, N-Ac-Cys-Ala-His-Ala-Val-Asp-Cys-NH2] (Ac-CAHAVDC-NH2; disulfide 1-7), the “activity on SKOV3 cell adhesion” value in the experiment with SKOV3 cells is “inactive”. Moreover, in experiment [1], the “effect on endothelial cell monolayer / morphology” value was “had a slight effect; also recorded: retracted from one another”.

As for `CC(=O)N[C@H]1CSSC[C@@H](C(N)=O)NC(=O)[C@H](C(C)C)NC(=O)[C@H](C)NC(=O)[C@H](Cc2c[nH]cn2)NC1=O` [N-Ac-CHAVC-NH2, N-Ac-Cys-His-Ala-Val-Cys-NH2], the SKOV3 cell morphology entry in the experiment on SKOV3 cells (0.5 mg/ml, 24 hours) was “round-up”; in the experiment on SKOV3 cells (0.5 or 1 mg/ml, 24-48 hours) it was “retract from one another and round-up”. Also, the “effect on SKOV3 cell adhesion” value in the experiment with SKOV3 cells was “disrupted SKOV3 cell adhesion”. Further, the “effect on endothelial cell monolayer / morphology” value in experiment [1] is recorded as “disrupted the endothelial cell monolayer; also recorded: retracted from one another”. The IC50 in the experiment on HUVEC, in the experiment with PC-3, with WI-38, in the experiment with HMVEC and in the experiment on IAFp2 was > 100 µM in each case.

With `CC(=O)N[C@H]1CSSC[C@@H](C(N)=O)NC(=O)[C@H](CO)NC(=O)[C@H](C(C)C)NC(=O)[C@H](C)NC(=O)[C@H](Cc2c[nH]cn2)NC1=O` [N-Ac-CHAVSC-NH2, N-Ac-Cys-His-Ala-Val-Ser-Cys-NH2] (Ac-CHAVSC-NH2; disulfide 1-6), the “effect on endothelial cell monolayer / morphology” value in experiment [1] is listed as “had no effect on endothelial cell morphology”.

For the compound `CC(=O)N[C@H]1CSSC[C@@H](C(N)=O)NC(=O)[C@H](C(C)C)NC(=O)CNC(=O)[C@H](Cc2c[nH]cn2)NC1=O` [N-Ac-CHGVC-NH2, reference compound], the “effect on SKOV3 cell adhesion” value with SKOV3 cells is given as “had no affect on cell adhesion”. In experiment [1], the “effect on endothelial cell monolayer / morphology” value was “inactive”. Further, the IC50 with HUVEC, in the experiment with PC-3, in the experiment on WI-38, in the experiment on HMVEC and in the experiment on IAFp2 was > 100 µM in each case.
